Test results taken from PubChem BioAssay AID1963843 (Molecular Pharmacology Branch, DTP, NCI, 2024).
pIC50: −log10 of the molar value.

System: 616215-338-R-J1-PDC complex spheroid viability
Test: Anticancer human tumor 616215-338-R-J1-PDC patient-derived colon adenocarcinoma cell line growth inhibition [POLQ]
Details: for pIC50: curve of first compound; for viability, T/C: stronger effect = lower value
Protocol: Multicellular complex tumor spheroid response to Polymerase (POL) inhibitors (novobiocin, ART-558, RP6685) in combination with a variety of drugs and investigational agents in selected tumor cell lines
The POL inhibitors (novobiocin, ART-558, and RP6685) were evaluated both individually and in combination with standard of care and investigational anticancer small molecules within a complex spheroid model of solid tumors. . Complex spheroids include a stromal component modeled by human endothelial cells (HUVEC) and fibroblasts modeled by human mesenchymal stem cells (MSCs). The concentration ranges selected for each drug and investigational agent were based upon clinically achievable concentrations if the clinical Cmax of the agent was known.
Compounds. The drugs and investigational agents: novobiocin (NSC847541), ART-558 (NSC835418), RP-6685 (NSC848927), peposertib (NSC802822), ceralasertib (NSC780249), elimusertib (NSC800525), camonsertib (NSC841442), AZD-1390 (NSC803789), olaparib (NSC753686), talazoparib (NSC767125), rucaparib (NSC756644), sotorasib (NSC818433), MRTX-1133 (NSC836407), SN-38 (NSC673596), topotecan (NSC609699), epotoside (NSC141540), doxorubicin (NSC123127), gemcitabine (NSC613327), 5-fluorouracil (NSC19893), paclitaxel (NSC125973), vemurafenib (NSC761431), MSA-2 (NSC828583), SN-011 (NSC837082), adavosertib (NSC754352), prexasertib (NSC758257), carboplatin (NSC241240) and oxaliplatin (NSC266046), were obtained from the National Cancer Institute (NCI) Developmental Therapeutics Program Chemical Repository (21). The FDA-approved anticancer drug set is available from the Developmental Therapeutics Program at https://dtp.cancer.gov/organization/dscb/obtaining/. […] The stock solutions were prepared in dimethyl sulfoxide (DMSO, Sigma-Aldrich, St. Louis, MO, cat. D2650), except for the platinum compounds which were prepared in saline (Quality Biological, Gaithersburg, MD, cat. 114-055-101), at 800-fold the tested concentration and stored at -70 degrees C prior to their use. All drugs and investigational agents were tested over a range starting from a high concentration at or near the clinical Cmax and decreasing in half-log increments. If the clinical Cmax for an agent had not been determined, the highest concentration tested was 10 microM, except for SN-38, which was tested at a high concentration of 1 microM.
Cell Culture. All cells were maintained in an incubator at 37 degrees C and 5% CO2 with 95% humidity. The PDC lines were cultured according to standard operating procedures established by the NCI PDMR (https://pdmr.cancer.gov). Table 3 of the manuscript, lists the cell lines along with the number of the three cell types plated to form the mct-spheroids and media for tumor cell growth. After thawing, all PDC lines, except 997537-175-T-J1-PDC and 415267-285-R-J2-PDC, were cultured in Matrigel-coated flasks prepared with a working solution of 1X Ham's F-12 nutrient mix, without supplementation (Thermo Fisher Scientific, cat. 11765054), 100 U/mL penicillin-streptomycin (Thermo Fisher Scientific, cat. 15140122), and 2.5% Matrigel (Corning Inc., Corning, NY, cat. 354248) for the first three passages. The two PDC lines 997537-175-T-J1-PDC and 415267-285-R-J2-PDC were cultured on uncoated flasks. The 857933-349-R-J2-PDC line was cultured in 6C/Colon 1B media containing advanced DMEM/F-12 (Thermo Fisher Scientific, cat. 12634028), 10 mM HEPES (Thermo Fisher Scientific, cat. 15630080), 1X GlutaMAX supplement (Thermo Fisher Scientific, cat. 35050061), 0.1 mg/mL primocin (InvivoGen, San Diego, CA, cat. ant-pm-2), 10% defined fetal bovine serum, heat inactivated (HyClone Laboratories Inc., Logan, UT, cat. SH30070.03HI), 50% L-WRN conditioned media (ATCC, cat. CRL-3276), 1.25 mM N-Acetyl-L-cysteine (Sigma-Aldrich, cat. A9165), 10 mM nicotinamide (Sigma-Aldrich, cat. N0636), 1X B-27 supplement (Thermo Fisher Scientific, cat. 17504044), 1X N-2 supplement (Thermo Fisher Scientific, cat. […]
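Further: spheroids exposed to compounds for one week before readout.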
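Wherever viability, T/C is given: percent viability relative to DMSO vehicle wells taken as 100%.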

CC(=O)O[C@H]1C(=O)[C@@]2(C)[C@H]([C@H](OC(=O)c3ccccc3)[C@]3(O)C[C@H](OC(=O)[C@H](O)[C@@H](NC(=O)c4ccccc4)c4ccccc4)C(C)=C1C3(C)C)[C@]1(OC(C)=O)CO[C@@H]1C[C@@H]2O + COC1C(OC(N)=O)C(O)C(Oc2ccc3c(O)c(NC(=O)c4ccc(O)c(CC=C(C)C)c4)c(=O)oc3c2C)OC1(C)C
pIC50 (second compound 0.0316 µM): 7.38 | pIC50 (second compound 0.1 µM): 7.34 | pIC50 (second compound 0.316 µM): 7.60 | pIC50 (second compound 1 µM): 7.57 | pIC50 (second compound 3.16 µM): 7.53 | pIC50 (second compound 10 µM): 7.53 | viability, T/C (second compound 0.0316 µM, first compound 0.00949 µM): 76.1% | viability, T/C (second compound 0.0316 µM, first compound 0.03 µM): 52.6% | viability, T/C (second compound 0.0316 µM, first compound 0.0949 µM): 41% | viability, T/C (second compound 0.0316 µM, first compound 0.3 µM): 38.6% | viability, T/C (second compound 0.0316 µM, first compound 0.949 µM): 34.3% | viability, T/C (second compound 0.0316 µM, first compound 3 µM): 30.5% | viability, T/C (second compound 0.1 µM, first compound 0.00949 µM): 89.7% | viability, T/C (second compound 0.1 µM, first compound 0.03 µM): 54% | viability, T/C (second compound 0.1 µM, first compound 0.0949 µM): 42.5% | viability, T/C (second compound 0.1 µM, first compound 0.3 µM): 35.3% | viability, T/C (second compound 0.1 µM, first compound 0.949 µM): 37.1% | viability, T/C (second compound 0.1 µM, first compound 3 µM): 32.6% | viability, T/C (second compound 0.316 µM, first compound 0.00949 µM): 97.3% | viability, T/C (second compound 0.316 µM, first compound 0.03 µM): 41.5% | viability, T/C (second compound 0.316 µM, first compound 0.0949 µM): 40.4% | viability, T/C (second compound 0.316 µM, first compound 0.3 µM): 38.3% | viability, T/C (second compound 0.316 µM, first compound 0.949 µM): 38.5% | viability, T/C (second compound 0.316 µM, first compound 3 µM): 31.8% | viability, T/C (second compound 1 µM, first compound 0.00949 µM): 96.5% | viability, T/C (second compound 1 µM, first compound 0.03 µM): 44.1% | viability, T/C (second compound 1 µM, first compound 0.0949 µM): 37.1% | viability, T/C (second compound 1 µM, first compound 0.3 µM): 33.4% | viability, T/C (second compound 1 µM, first compound 0.949 µM): 31.4% | viability, T/C (second compound 1 µM, first compound 3 µM): 31.7% | viability, T/C (second compound 3.16 µM, first compound 0.00949 µM): 84.2% | viability, T/C (second compound 3.16 µM, first compound 0.03 µM): 48.2% | viability, T/C (second compound 3.16 µM, first compound 0.0949 µM): 40.8% | viability, T/C (second compound 3.16 µM, first compound 0.3 µM): 31.4% | viability, T/C (second compound 3.16 µM, first compound 0.949 µM): 36.1% | viability, T/C (second compound 3.16 µM, first compound 3 µM): 32.2% | viability, T/C (second compound 10 µM, first compound 0.00949 µM): 87.6% | viability, T/C (second compound 10 µM, first compound 0.03 µM): 48.3% | viability, T/C (second compound 10 µM, first compound 0.0949 µM): 42.2% | viability, T/C (second compound 10 µM, first compound 0.3 µM): 34.2% | viability, T/C (second compound 10 µM, first compound 0.949 µM): 32.7% | viability, T/C (second compound 10 µM, first compound 3 µM): 36.5%
